# Test results: paper PMC12040169 (PLOS Biology, 2025)
# Test: in vitro
# Conditions: human, hela cells, % viability
row,Structure (SMILES),"viability at 28.5 h, 10 µM [%]"
1,Cc1ccc2oc([C@H]3CCN(S(C)(=O)=O)C3)nc2c1 [CBK289371],97.2
2,Cn1c(SCC(=O)c2ccc(O)c(O)c2)nnc1-c1ccccc1 [CBK262544],81.5
3,CC(Nc1cc(N2CCN(S(=O)(=O)N(C)C)CC2)ccc1[N+](=O)[O-])C12CC3CC(CC(C3)C1)C2 (stereo not drawn) [CBK265479],115
4,OCCc1ccc(Nc2cc(-c3ccsc3)ncn2)cc1 [CBK090769],103
5,CC(=O)N1CCN(C(=O)c2cnc(-c3ccc(Cl)cc3)c(-c3ccco3)c2)CC1 [CBK037518],98.1
6,O=C(NCC1CCCCC1)c1ccccc1-n1cccc1 [CBK149603],91.7
7,Cn1nccc1CN1CCCC(COc2ccc(F)cc2)C1 (stereo not drawn) [CBK281899],95.2
8,CCCc1[nH]n(-c2ccc([N+](=O)[O-])cc2)c(=O)c1/C=N/N1CCN(C)CC1 [CBK262781],92.8
9,COc1cc(CO)c(-c2c[nH][nH]c2=O)cc1OC [CBK009476],85.5
10,CCOC(=O)c1c(CN2CCCC2)nc2c3ccccc3ccn12 [CBK267521C],107
11,O=c1cc(NCCCN2CCN(Cc3ccccc3)CC2)c2ccccc2o1 [CBK011079],81
12,CS(=O)(=O)c1ccc(-c2nccnc2N2CCCCC2CO)cc1 (stereo not drawn) [CBK037657],102
13,CCOc1ccccc1NC(=O)CN(C)S(=O)(=O)c1ccc2ccccc2c1 [CBK266874],101
14,O=C(NCc1cccs1)C1(Cc2ccccc2-c2coc3ccccc23)CCOCC1 [CBK286310],108
15,CSCCN1CCN(c2nccnc2OC2CCCCC2)CC1 [CBK082843T],108
16,Nc1nc2c(cc1C(=O)NCc1ccccc1)CN(C(=O)CCCc1ccc(F)cc1)CC2 [CBK285887],95.3
17,CCN(C(=O)c1ccc(=O)[nH]c1)C(CC1CCCCC1)c1ccccc1 (stereo not drawn) [CBK062678],91.1
18,C[C@@H](c1ccccc1)N1C(=O)[C@@H]2CN(S(=O)(=O)c3cccs3)CCN2C1=O [CBK289635],91.3
19,c1ccc(CCNc2nc(-c3cccnc3)nc3ccccc23)cc1 [CBK263672],105
20,O=C(Nc1cccc2cccnc12)c1ccc(Cl)c(Cl)c1 [CBK261318],91.5
21,CC(C)NC(=O)N[C@H]1CCN2C(=O)N(c3ccc(F)c(Cl)c3)C(=O)[C@@H]2C1 [CBK289540],83.1
22,CC(=O)ON=C1c2cc(S(=O)(=O)N(C)C)ccc2-c2ccc(S(=O)(=O)N(C)C)cc21 [CBK262807],87.1

row,Structure (SMILES),"viability at 28.5 h, 10 µM [%]"
1,Cc1noc([C@@H]2C[C@H](NC(=O)c3ccc(C#N)cc3)CN2C)n1 [CBK288872],97.6
2,COc1ccc(CN(C)c2c(C)nc3c(OCCc4cccc(OC)c4)cccn23)cc1 [CBK147467],109
3,O=c1[nH]c2cc(Cl)c(Br)nc2[nH]1 [CBK026531],76.9
4,O=C(NCC1CCCCC1)C1(Cc2ccc(-c3cccnc3)cc2)CCOCC1 [CBK285591],92.6
5,O=C(NCCOc1ccccc1)NC(=O)C1CCNCC1 [CBK088187T],119
6,CC(=O)Nc1ccc(-c2ccc(C(=O)N3CCN(C4CCN(C)CC4)CC3)cn2)cc1 [CBK158824],96.7
7,Cc1nn(CCC#N)c(C)c1[C@@H]1C=C[C@@H](NC(=O)Nc2ccc(Cl)cc2)C1 [CBK288803],95.8
8,COc1cc(/C=N/N=C(/Nc2ccc(C)cc2)c2nc3ccccc3s2)ccc1O [CBK265029],103
9,COc1cc(/C=N/n2c(S)nnc2-c2cccnc2)ccc1OCc1ccccc1 [CBK265307],110
10,O=C(NC(c1ccccc1)c1ccccn1)c1ccco1 (stereo not drawn) [CBK144109],106
11,O=C(c1cc(S(=O)(=O)N2CCCCC2)c(Cl)cc1N1CCOCC1)N1CCOCC1 [CBK263400],82.5
12,Cc1ncsc1CCOc1cc(C(F)(F)F)ccn1 [CBK115785],100
13,COc1ccc(SCCCCN2CCC3(CC2)OCCc2c3[nH]c3ccccc23)cc1 [CBK113464T],0.266
14,COc1cc(C(=O)O)ccc1Oc1cnn(-c2ccccc2)c(=O)c1Cl [CBK287032],94.9
15,COc1cc(C(=O)N2CCC3(CC2)CC(=O)c2ccc(-c4ccc(NS(C)(=O)=O)cc4)cc2O3)cc(OC)c1C [CBK170163],90.8
16,NC(=O)C1CCN(Cc2nc(-c3cccc(C(F)(F)F)c3)no2)CC1 [CBK304276],97.4
17,Cc1ccc(-c2cc(C(=O)Nc3ccc(S(=O)(=O)Nc4nccs4)cc3)c3ccccc3n2)c(C)c1 [CBK262638],85.3
18,CC(C)(C)OC(=O)N1CCN(c2ncc([N+](=O)[O-])s2)CC1 [CBK000135],92.1
19,Cc1cc(C)n(CC2CN(CC(=O)NCc3ccccn3)CCO2)n1 (stereo not drawn) [CBK305344],107
20,CCN1CCN(c2ccc3nnc(C(C)C)n3n2)CC1 [CBK287974],88.3
21,CCOC(=O)c1c(CSc2ccc(Cl)cc2)n(C)c2cc(Br)c(O)c(CN(C)C)c12 [CBK217489C],108
22,O=C(NC(=S)Nc1sc2c(c1C(=O)O)CCCC2)c1ccccc1 [CBK263695],98.1

row,Structure (SMILES),"viability at 28.5 h, 10 µM [%]"
1,Cc1ccc(-n2c(SCC(=O)Nc3ccccc3C#N)nnc2-c2cc(Br)ccc2O)c(C)c1 [CBK268743],94.1
2,Cc1ccc(Oc2nnnn2-c2ccccc2)c(Br)c1 [CBK002827],106
3,Cc1ccc(CN(C)C(C)C(=O)NCc2cccs2)cc1 (stereo not drawn) [CBK295663],103
4,Fc1ccc(C2CCCN(CCCOc3cccc(F)c3)C2)cc1 (stereo not drawn) [CBK016228B],102
5,O=C(Cc1ccsc1)N1CCn2nc(C(O)Cc3ccccc3)cc2C1 (stereo not drawn) [CBK306547],95.9
6,CNS(=O)(=O)c1cc(C(=O)O)ccc1OC [CBK270179],104
7,CC(=O)Nc1ccc(CNC(=O)c2ccc(C(F)(F)F)cn2)cc1 [CBK252121],92
8,OCC1CCCCC1NCCCC(c1ccc(F)cc1)c1ccc(F)cc1 (stereo not drawn) [CBK015830C],104
9,COC(=O)c1sc2cc(C(F)(F)F)cnc2c1NC(=O)C1COc2ccccc2O1 (stereo not drawn) [CBK115865],107
10,COc1cc(/C=N\NC(=O)CSc2nc3ccccc3o2)ccc1O [CBK263630],86.5
11,CCOC(=O)c1cnc(SCc2nc(N)nc(Nc3ccc(C)cc3)n2)nc1N [CBK266292],115
12,O=C(Cc1ccc(Br)cc1)N1CCC(Cc2ccccc2)CC1 [CBK058493],96.7
13,OC[C@H]1CCCN1c1nc(Br)cn2c(-c3ccccn3)cnc12 [CBK094394],100
14,O=C(O)CC(C(=O)N1CCOCC1)N1CCCCC1 (stereo not drawn) [CBK287074],98.7
15,O=C(Cc1ccccc1)NC(Cc1ccc(Cl)cc1)C(=O)O (stereo not drawn) [CBK286976],92.7
16,CCOc1ccc(Cl)cc1CN(C)C(=O)NCc1nccn1C(C)C [CBK307111],101
17,COc1c(C(=O)Nc2ccc(CN3CCOCC3)cc2)cc2ccccc2c1Br [CBK268593],103
18,O=C(Nc1nn(Cc2ccc(Oc3ccccc3)cc2)c2ccccc12)c1ccno1 [CBK048224],97.8
19,CC1(C)CC(=O)c2sc(NS(=O)(=O)c3sc(Cl)cc3Br)nc2C1 [CBK200029],109
20,Cc1ccc(S(=O)(=O)NC(C)C(=O)NCc2ccco2)cc1 (stereo not drawn) [CBK266514],109
21,N#CCCCN1CCC(Oc2nccnc2OCc2cccc(Cl)c2)CC1 [CBK153642],90.6
22,C[C@H](Nc1cncc(-c2cccc(C(=O)NCCO)c2)n1)c1ccccc1 [CBK066007],108

row,Structure (SMILES),"viability at 28.5 h, 10 µM [%]"
1,CCc1ccc(S(=O)(=O)Nc2cccnc2)cc1 [CBK287782],87.5
2,COCC(=O)N1CCC2(C/C=C/C[C@H]3COCC[C@@H]3NC(=O)CNC2=O)CC1 [CBK292158],95.2
3,CCOC(=O)c1ccc(NC(=O)C(C)Sc2nc3ccccc3[nH]2)cc1 (stereo not drawn) [CBK267330],91.8
4,CC1Cc2cc(C(O)CN3CCC(O)(c4ccccc4F)CC3)ccc2N1S(C)(=O)=O (stereo not drawn) [CBK283091],87.5
5,O=C(CSc1ccc2ccccc2c1)Nc1ccc(Cl)c(C(=O)O)c1 [CBK268239],103
6,O=c1n(-c2ccc(Cl)c(Cl)c2)ccn1S(=O)(=O)CCc1cccc2ccccc12 [CBK106668],106
7,COC(=O)c1nn(C(=O)N(C)C)c(C)c1Br [CBK005077],88.5
8,O=C(NCCc1ccc(Cl)cc1)C1CCN(C(=O)CCc2ccccc2F)C1 (stereo not drawn) [CBK285931],84.1
9,O=C1Nc2ccccc2C1Cc1cccc(OC(F)F)c1 (stereo not drawn) [CBK287892],95
10,CC1=NN(c2ccc([N+](=O)[O-])cc2)C(=O)/C1=C\NCCc1ccc(S(N)(=O)=O)cc1 [CBK263006],92.6
11,CN(C)S(=O)(=O)N1CCN(c2ccc([N+](=O)[O-])c(NC3C4CC5CC(C4)CC3C5)c2)CC1 (stereo not drawn) [CBK268986],102
12,CC(=O)c1cc2c(cc1NC(=O)CSc1nc3ccccc3[nH]1)OCO2 [CBK266110],69.8
13,CC1Cc2cc(C(O)CN3CCCCC3)ccc2N1C(=O)C1CC1 (stereo not drawn) [CBK283144],97.4
14,CC(=O)N1CCN(c2nnc(-c3ccccc3)o2)CC1 [CBK170332],87.9
15,O=c1oc(-c2ccncc2)nn1Cc1ccccc1F [CBK283692],89.1
16,COc1ccccc1N1CCN(C(=O)NCCC(C)C)CC1 [CBK155611],94.5
17,CCSc1nnc(-c2cccc(C)c2)n1CC1CCCO1 (stereo not drawn) [CBK085413],93.1
18,O=C(Nc1ccc(Br)cc1)c1c(O)n2c3c(cccc3c1=O)CCC2 [CBK291207],103
19,COc1ccc(C(=O)CSc2nnc(-c3ccc4c(c3)OCO4)n2-c2ccccc2)cc1 [CBK263592],80.7
20,COC1C(O)C(CO)OC1n1cc(F)c(=O)[nH]c1=O (stereo not drawn) [CBK201253],91.4
21,Cc1ccc(C2C(C(=O)c3ccc(Cl)cc3)=C(O)C(=O)N2CCCN2CCOCC2)o1 (stereo not drawn) [CBK264514],92.6
